Tests used:
[1] = untoward effects during the observation period; format: in vivo, human; settings: healthy person, oral, same dose as Example 1
Description: (§1) A healthy subject with normal blood pressure volunteers to take the medicine for observation on hair growth promoting activity at the same dose reported in Example 1. Before taking the medicine they have few hairs left in the frontoparietal area of the head. Three months after taking the medicine, they begin to note an increase of hair density in the affected area. […] The response to the medicine is more sensitive in areas with most recent hair loss. […] The observation is terminated at the end of six months.
A healthy person with normal blood pressure volunteers to take the medicine for the same observation as in Example 2 at the dose described above. Their hair condition is normal with no baldness. During the six month testing period, they collect in intervals the hair samples from regular daily combing. Before the testing and during the first month of testing, the hair samples collected have two types, namely completely dark brown or completely gray. At around 50 days into the testing period, a new type of hair, partly dark brown and partly gray, begins to appear in the hair samples; they represent about 3% of the gray hairs. In this subject, the gray hairs represent about 25% of their total hairs in the samples collected. It is noted that the dark brown part of the new type of hair is always associated with the lower part of the hair shaft. […]

[2] = tested on: hair in the frontoparietal area of the head; test: observation on hair growth promoting activity on oral bimatoprost; format: in vivo, human; settings: healthy person
Description: as §1

gray hair = test: conversion of gray hair to original pigment on oral bimatoprost in human subjects; format: in vivo
Description: A patient began taking bimatoprost as a tablet. […] A healthy person with normal blood pressure volunteers to take the medicine for the same observation as in Example 2 at the dose described above. Their hair condition is normal with no baldness. During the six month testing period, they collect in intervals the hair samples from regular daily combing. Before the testing and during the first month of testing, the hair samples collected have two types, namely completely dark brown or completely gray. At around 50 days into the testing period, a new type of hair, partly dark brown and partly gray, begins to appear in the hair samples; they represent about 3% of the gray hairs. In this subject, the gray hairs represent about 25% of their total hairs in the samples collected. It is noted that the dark brown part of the new type of hair is always associated with the lower part of the hair shaft. This is easily identifiable because the hair follicles are distinguishable at one end of hair shafts. The quality and thickness of the new type of hair is very similar to the other types of hairs of this subject. The ratio of length of the dark brown part to that of the gray part of the new type of hair varies from 1:5 to 4:1 in the samples collected during the five-month period. This varying ratio may reflect the stages of the growth cycle of each hair follicle examined. The observation was discontinued at the end of five months.

eyelashes = settings: Lumigan ophthalmic solution applied in the FDA approved manner; cited from earlier work

Structure (SMILES): CCNC(=O)CCC/C=C\C[C@@H]1[C@@H](/C=C/[C@@H](O)CCc2ccccc2)[C@H](O)C[C@@H]1O [bimatoprost, cyclopentane N-ethyl heptanamide-5-cis-2-(3α-hydroxy-5-phenyl-1-trans-pentenyl)-3,5-dihydroxy, [1α,2β,3α,5α]]
- untoward effects ([1]; observation discontinued at five months): No untoward effects were reported
- untoward effects ([1]; six months observation): does not experience any untoward effects
- time until increase of hair density in the affected area is noted ([2]; few hairs in frontoparietal area, same dose as Example 1): Three
- colour of the newly grown hairs in the affected area ([2]; same dose as Example 1): mostly dark brown
- overall increase of the hair density in the affected area ([2]; same dose as Example 1, six months): very significant
- hair cut frequency ([2]; same dose as Example 1, three to six months of the testing period): increase the hair cut frequency to once a month from once every two months
- time until new type of hair, partly dark brown and partly gray, appears in hair samples (gray hair; healthy person, no baldness, oral, same dose as Example 1, hair samples from daily combing): around 50 days
- new type of hair (partly dark brown, partly gray) as share of the gray hairs (gray hair; healthy person, oral, same dose as Example 1, gray hairs about 25% of total hairs): about 3%
- gray hairs turned into the original pigment (gray hair; patient, oral tablet 2 x 100 mg per dose, 3 doses per day, four months): a significant portion of their gray hairs had gradually turned into the original pigment or dark brown color
- growth of eyelashes (eyelashes): effective to increase the growth of eyelashes
